{"source": "paper PMC6412381", "about": "“Covalently Linking Oligomerization-Impaired GlpF Protomers Does Not Completely Re-establish Wild-Type Channel Activity” (International Journal of Molecular Sciences, 2019)", "key": {"GlpF WT (non-fused)": {"target": "T1, GlpF WT (non-fused) (Escherichia coli, UniProt P0AER0)", "T1 construct": "expressed from pMalp2-based plasmid in E. coli SK46 lacking GlpF and AqpZ", "T1 sequence (P0AER0 1-281)": "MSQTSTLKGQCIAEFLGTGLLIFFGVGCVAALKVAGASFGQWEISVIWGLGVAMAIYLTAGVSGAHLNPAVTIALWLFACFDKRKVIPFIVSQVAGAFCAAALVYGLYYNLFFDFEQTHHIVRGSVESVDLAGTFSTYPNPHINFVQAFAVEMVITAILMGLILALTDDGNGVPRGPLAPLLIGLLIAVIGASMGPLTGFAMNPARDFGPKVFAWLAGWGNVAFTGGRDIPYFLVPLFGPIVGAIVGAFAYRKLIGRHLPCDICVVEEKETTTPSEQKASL", "test": "stopped-flow light scattering of E. coli SK46 cells, re-swelling by ribitol influx", "assay_type": "cell-based", "conditions": "LB medium, mixed with equal volume of 600 mM ribitol, 25 °C, 500 µM IPTG induction; transport through channel"}, "[1]": {"target": "T2, WT4 (genetically fused GlpF tetramer) (Escherichia coli, UniProt P0AER0)", "T2 construct": "four full-length GlpF copies fused in one polypeptide, N-terminal extension MGSGLE, Val-Glu linkers between monomers, calculated 120 kDa; expressed in E. coli SK46 lacking GlpF and AqpZ", "T2 sequence (P0AER0 1-281)": "T1 sequence (P0AER0 1-281)", "test": "stopped-flow light scattering of E. coli SK46 cells, re-swelling by ribitol influx", "assay_type": "cell-based", "conditions": "LB medium, mixed with equal volume of 600 mM ribitol, 25 °C, 500 µM IPTG induction; transport through channel"}}}
{"compound": "OC[C@@H](O)[C@@H](O)[C@@H](O)CO", "note": "[ribitol]", "values": [{"measurement": "k (flux rate constant)", "setting": "GlpF WT (non-fused)", "result": "the ribitol conductance of the fused GlpF tetramer was slightly decreased compared to the non-fused"}, {"measurement": "k (flux rate constant)", "setting": "[1]", "result": "yet the WT4 protein was still highly active"}]}
